Measurements taken from the NIST ThermoML archive (doi:10.1016/j.jct.2008.09.018).
Numbers after ± are expanded uncertainties.

How the values were obtained:
[1] = Liquid; for mass density: Vibrating tube method; for speed of sound: Pulse-echo method; for viscosity: Capillary tube (Ostwald / Ubbelohde) method
[2] = refractive index (Na D-line) (dimensionless); conditions: 298.15 K; 101.33 kPa; Liquid; Standard Abbe refractometry
[3] = xn = mol fraction of the nth substance listed; conditions: 101 kPa, Liquid, x1 = 1; for speed of sound: Pulse-echo method; for viscosity: Capillary tube (Ostwald / Ubbelohde) method; for mass density: Vibrating tube method

OCCO [1,2-ethanediol]
mass density ([1]; 283.15 K, 101.33 kPa): 1120.32 ± 0.18 kg/m3 | mass density ([1]; 285.64 K, 101.33 kPa): 1118.6 ± 0.18 kg/m3 | mass density ([1]; 290.64 K, 101.33 kPa): 1115.12 ± 0.17 kg/m3 | mass density ([1]; 293.14 K, 101.33 kPa): 1113.37 ± 0.17 kg/m3 | speed of sound ([1]; 293.15 K, 101 kPa): 1666.7 ± 1.4 m/s | mass density ([1]; 295.64 K, 101.33 kPa): 1111.62 ± 0.17 kg/m3 | viscosity ([1]; 298.15 K, 101.33 kPa): 16.95 ± 0.14 mPa·s | speed of sound ([1]; 298.15 K, 101.33 kPa): 1654.9 ± 1.4 m/s | mass density ([1]; 300.65 K, 101.33 kPa): 1108.12 ± 0.17 kg/m3 | viscosity ([1]; 303.15 K, 101 kPa): 13.83 ± 0.1 mPa·s | speed of sound ([1]; 303.15 K, 101 kPa): 1643.1 ± 1.4 m/s | mass density ([1]; 303.15 K, 101 kPa): 1106.46 ± 0.17 kg/m3 | mass density ([1]; 303.15 K, 101.33 kPa): 1106.37 ± 0.17 kg/m3 | mass density ([1]; 305.64 K, 101.33 kPa): 1104.61 ± 0.17 kg/m3 | viscosity ([1]; 308.15 K, 101 kPa): 11.44 ± 0.083 mPa·s | speed of sound ([1]; 308.15 K, 101 kPa): 1631.2 ± 1.4 m/s | mass density ([1]; 310.65 K, 101.33 kPa): 1101.07 ± 0.17 kg/m3 | mass density ([1]; 313.14 K, 101.33 kPa): 1099.3 ± 0.17 kg/m3 | viscosity ([1]; 313.15 K, 101 kPa): 9.565 ± 0.071 mPa·s | speed of sound ([1]; 313.15 K, 101 kPa): 1619.3 ± 1.4 m/s | mass density ([1]; 313.15 K, 101 kPa): 1099.23 ± 0.17 kg/m3 | mass density ([1]; 315.65 K, 101.33 kPa): 1097.52 ± 0.17 kg/m3 | mass density ([1]; 320.64 K, 101.33 kPa): 1093.95 ± 0.17 kg/m3 | mass density ([1]; 323.15 K, 101.33 kPa): 1092.15 ± 0.17 kg/m3 | refractive index [2]: 1.4307 ± 0.0005

OCCO [1,2-ethanediol] + CCCCCCCCCO
speed of sound ([3]; 293.15 K): 1666.7 ± 1.4 m/s | viscosity ([3]; 298.15 K): 16.95 ± 0.12 mPa·s | speed of sound ([3]; 298.15 K): 1654.9 ± 1.4 m/s | viscosity ([3]; 303.15 K): 13.83 ± 0.1 mPa·s | speed of sound ([3]; 303.15 K): 1643.1 ± 1.4 m/s | mass density ([3]; 303.15 K): 1106.46 ± 0.17 kg/m3 | viscosity ([3]; 308.15 K): 11.44 ± 0.083 mPa·s | speed of sound ([3]; 308.15 K): 1631.2 ± 1.4 m/s | viscosity ([3]; 313.15 K): 9.565 ± 0.071 mPa·s | speed of sound ([3]; 313.15 K): 1619.3 ± 1.4 m/s | mass density ([3]; 313.15 K): 1099.23 ± 0.17 kg/m3

CCCCCCCCCO [nonan-1-ol]
mass density ([1]; 283.15 K, 101.33 kPa): 834.614 ± 0.25 kg/m3 | mass density ([1]; 285.64 K, 101.33 kPa): 832.923 ± 0.25 kg/m3 | mass density ([1]; 288.15 K, 101.33 kPa): 831.224 ± 0.25 kg/m3 | mass density ([1]; 290.65 K, 101.33 kPa): 829.521 ± 0.25 kg/m3 | mass density ([1]; 293.14 K, 101.33 kPa): 827.816 ± 0.25 kg/m3 | speed of sound ([1]; 293.15 K, 101 kPa): 1381.6 ± 1.6 m/s | mass density ([1]; 295.64 K, 101.33 kPa): 826.106 ± 0.25 kg/m3 | mass density ([1]; 298.14 K, 101.33 kPa): 824.391 ± 0.25 kg/m3 | viscosity ([1]; 298.15 K, 101.33 kPa): 9.494 ± 0.084 mPa·s | speed of sound ([1]; 298.15 K, 101.33 kPa): 1364.4 ± 1.6 m/s | mass density ([1]; 298.15 K, 101.33 kPa): 824.48 ± 0.26 kg/m3 | mass density ([1]; 300.65 K, 101.33 kPa): 822.671 ± 0.25 kg/m3 | mass density ([1]; 303.14 K, 101.33 kPa): 820.949 ± 0.25 kg/m3 | viscosity ([1]; 303.15 K, 101 kPa): 7.994 ± 0.068 mPa·s | speed of sound ([1]; 303.15 K, 101 kPa): 1347.4 ± 1.6 m/s | mass density ([1]; 303.15 K, 101 kPa): 821.05 ± 0.25 kg/m3 | mass density ([1]; 305.64 K, 101.33 kPa): 819.22 ± 0.25 kg/m3 | mass density ([1]; 308.14 K, 101.33 kPa): 817.486 ± 0.25 kg/m3 | viscosity ([1]; 308.15 K, 101 kPa): 6.713 ± 0.057 mPa·s | speed of sound ([1]; 308.15 K, 101 kPa): 1330.5 ± 1.6 m/s | mass density ([1]; 308.15 K, 101 kPa): 817.57 ± 0.25 kg/m3 | mass density ([1]; 310.64 K, 101.33 kPa): 815.748 ± 0.25 kg/m3 | viscosity ([1]; 313.15 K, 101 kPa): 5.657 ± 0.05 mPa·s | speed of sound ([1]; 313.15 K, 101 kPa): 1313.6 ± 1.6 m/s | mass density ([1]; 313.15 K, 101 kPa): 814.19 ± 0.25 kg/m3 | mass density ([1]; 313.15 K, 101.33 kPa): 814.001 ± 0.25 kg/m3 | mass density ([1]; 315.65 K, 101.33 kPa): 812.251 ± 0.25 kg/m3 | mass density ([1]; 318.15 K, 101.33 kPa): 810.496 ± 0.25 kg/m3 | mass density ([1]; 320.65 K, 101.33 kPa): 808.73 ± 0.25 kg/m3 | mass density ([1]; 323.15 K, 101.33 kPa): 806.96 ± 0.25 kg/m3 | refractive index [2]: 1.4323 ± 0.0005
